# Experimental data: patent publication US8592421B2, “Cyclic bioisosters of purine system derivatives and a pharmaceutical composition based thereon” (priority 2003, dated 2013)
# Marks after values point to notes of the source that are not given here.
# Tests used:
# plasma hemostasis [1] = assay: Partial activated thromboplastin time (PATT) after intravenous administration; type: in vivo, rabbit
# Protocol: (§1) The static parameters of the blood and plasma coagulation (partial activated thromboplastin time, thrombin time, maximum coagulation activity (test for auto coagulation) were determined using the Behnk Electronic coagulometer (Germany). The operating principle of this instrument is based on the fact that the formed blood clot breaks the contacts of the pulse counter in the flask-pin circuit, said pin permanently oscillating in a vertical plane. The moment of formation of the clot is registered by stopping the stop watch hand.
# (§2) The measurements were effected at a constant temperature of 37° C. maintained by a temperature control unit.
# plasma hemostasis [2] = assay: Thrombin time after intravenous administration; type: in vivo, rabbit
# Protocol: The investigations were performed on 72 rabbits of the “Chinchilla” breed with a mass of 2.5±0.3 kg, who were administered which solutions of compounds 2, 15, 21, 37 in doses of 15, 30 and 60 mg/kg intravenously. The experiments included the thrombin-test (series No. 7300) and the coagulability-test (series No. 5000) purchased from the scientific-and-production association (SPA) “Renam”, thromboplastin (series No. 240600) and calcium chloride purchased from the SPA “MedioLab”
# as §1, §2
# The “thrombin time” characterizes the rate of transformation of fibrinogen into fibrin. It was determined by measuring the coagulation time of plasma deprived of thrombocytes under the effect of thrombin standardized by the control plasma.
# 0.2 ml of a thrombin solution was added to 0.2 ml of the test blood plasma of experimental animals, from whom the blood was taken 15, 30, 60 and 120 minutes after the intravenous administration of compounds 2, 15, 21, 37 according to the invention in doses of 15, 30, 60 mg/kg incubated for 1 minute at a temperature of 37° C. and the time of formation of clot T2 in seconds in a coagulometer of the Behnk Electronic Company (Germany).
# thrombocytes = assay: ADP-induced aggregation of thrombocytes in vitro (Born method, plasma enriched with thrombocytes); type: cell-based, rabbit; settings: 3-minute incubation, ADP 10^−5 M
# Protocol: The aggregation of thrombocytes was studied by the Born method based on determination of the changes in the optical density of plasma enriched with thrombocytes after its incubation with an aggregation inductor.
# Adenozinediphosphoric acid (ADP) was selected as an aggregation inductor, which in fact is an aggregation generator. Use was made of a sample (registration number 885) of the Sigma Diagnostics Company (USA) in final concentration of 10^−5 M.
# The experiments were carried out on male rabbits of the “Chinchilla” breed having a mass of 2.7±0.3 kg. 18-24 hours prior to the experiment they were deprived of feed while preserving free access to water.
# To obtain plasma enriched with thrombocytes, blood was taken from a cut of a marginal vein of the rabbit ear, the sample was stabilized with 3.8% of sodium citrate solution in a ratio of 9:1 and centrifuged at 200 g (1000 rev/min) for 10 minutes. The top supernatant layer enriched with thrombocytes was transferred by an automatic dropper into a silicone test tube and kept at 37° C. The plasma enriched with thrombocytes contained, on the average, […]. If this content exceeded the specified 3×10^8 blood platelets in 1 liter, this sample was diluted to the necessary concentration with plasma deprived of thrombocytes, which was obtained by centrifuging blood at 650 g during 10 minutes.
# The measurements of the optical density of the samples were made on two-channel aggregometer of the “Chronolog” Company (USA). A flask containing 490 mkl of plasma rich with thrombocytes was placed in a device, into which a magnetic agitator covered with Teflon was lowered. The index of maximum amplitude of aggregation (MA) in percent of a fall of the plasma optical density under effect of the aggregation inductor was recorded. The control index MA of plasma was compared with the MA of plasma incubated for 3 minutes with different concentrations of the compounds: from 10^−3 to 10^−7 in vitro experiments or with plasma obtained 15, 30, 60 and 120 minutes after intravenous administration of different doses of the compounds in vivo experiments.
# The process of aggregation of thrombocytes was recorded with the help of a computer; on the monitor screen the there were depicted curves reflecting changes of the optical density of the plasma enriched which was taken as a standard 100% compared to the optical density of the non-thrombocyte plasma taken for 0% content of thrombocytes.
# Under in vitro conditions a flask was filled with blood plasma enriched with thrombocytes, to which an aggregation inductor ADP was added at a concentration of 10^−5 M, incubated for 3 minutes, and then the compounds according to the invention were introduced directly into the flask. Their action by aggregation of thrombocytes was studied after 3-minute incubation in a wide range of concentrations from 10^−3 to 10^−7 M to minimum concentration of 10^−7M not inducing no effect of suppressing the aggregation.
structure (smiles),measurement,setting,value
"Nc1cnc2c(=O)n([C@@H]3O[C@H](CO)[C@@H](O)[C@H]3O)[nH]c(=O)c2n1.[Na] [Compound 21, sodium salt of 3-amino-7-(β-D-ribofuranosile)pyrazine[2,3-d]-6H-pyridazine-5,8-dione]","PATT, T","plasma hemostasis [1]; 15.0 mg/kg intravenously, after 15 minutes, control 37.0 ± 0.2",37.1 ± 0.1 s
same,"PATT, T","plasma hemostasis [1]; 15.0 mg/kg intravenously, after 30 minutes, control 37.0 ± 0.2",37.2 ± 0.1 s
same,"PATT, T","plasma hemostasis [1]; 15.0 mg/kg intravenously, after 60 minutes, control 37.0 ± 0.2",36.9 ± 0.1 s
same,"PATT, T","plasma hemostasis [1]; 15.0 mg/kg intravenously, after 120 minutes, control 37.0 ± 0.2",37.0 ± 0.2 s
same,"PATT, T","plasma hemostasis [1]; 30.0 mg/kg intravenously, after 15 minutes, control 33.3 ± 0.8",32.8 ± 0.4 s
same,"PATT, T","plasma hemostasis [1]; 30.0 mg/kg intravenously, after 30 minutes, control 33.3 ± 0.8",32.0 ± 0.1 s
same,"PATT, T","plasma hemostasis [1]; 30.0 mg/kg intravenously, after 60 minutes, control 33.3 ± 0.8",32.2 ± 0.1 s
same,"PATT, T","plasma hemostasis [1]; 30.0 mg/kg intravenously, after 120 minutes, control 33.3 ± 0.8",32.1 ± 0.1 s
same,"PATT, T","plasma hemostasis [1]; 60.0 mg/kg intravenously, after 15 minutes, control 32.5 ± 0.3",32.0 ± 0.4 s
same,"PATT, T","plasma hemostasis [1]; 60.0 mg/kg intravenously, after 30 minutes, control 32.5 ± 0.3",32.1 ± 0.2 s
same,"PATT, T","plasma hemostasis [1]; 60.0 mg/kg intravenously, after 60 minutes, control 32.5 ± 0.3",32.0 ± 0.1 s
same,"PATT, T","plasma hemostasis [1]; 60.0 mg/kg intravenously, after 120 minutes, control 32.5 ± 0.3",32.3 ± 0.2 s
same,effect on the PATT,"plasma hemostasis [1]; doses 15.0, 30.0, 60.0 mg/kg",do not affect the PATT
same,"thrombin time, T2","plasma hemostasis [2]; 15.0 mg/kg intravenously, after 15 minutes, control 15.8",16.4* s
same,"thrombin time, T2","plasma hemostasis [2]; 15.0 mg/kg intravenously, after 30 minutes, control 15.8",17.7* s
same,"thrombin time, T2","plasma hemostasis [2]; 15.0 mg/kg intravenously, after 60 minutes, control 15.8",16.1* s
same,"thrombin time, T2","plasma hemostasis [2]; 15.0 mg/kg intravenously, after 120 minutes, control 15.8",15.7* s
same,"thrombin time, T2","plasma hemostasis [2]; 30.0 mg/kg intravenously, after 15 minutes, control 14.7",17.9* s
same,"thrombin time, T2","plasma hemostasis [2]; 30.0 mg/kg intravenously, after 30 minutes, control 14.7",18.8* s
same,"thrombin time, T2","plasma hemostasis [2]; 30.0 mg/kg intravenously, after 60 minutes, control 14.7",19.0* s
same,"thrombin time, T2","plasma hemostasis [2]; 30.0 mg/kg intravenously, after 120 minutes, control 14.7",15.6* s
same,"thrombin time, T2","plasma hemostasis [2]; 60.0 mg/kg intravenously, after 15 minutes, control 15.2",16.2* s
same,"thrombin time, T2","plasma hemostasis [2]; 60.0 mg/kg intravenously, after 30 minutes, control 15.2",17.7* s
same,"thrombin time, T2","plasma hemostasis [2]; 60.0 mg/kg intravenously, after 60 minutes, control 15.2",16.3* s
same,"thrombin time, T2","plasma hemostasis [2]; 60.0 mg/kg intravenously, after 120 minutes, control 15.2",15.7* s
same,"MA - fall of optical density of plasma, % to the standard","thrombocytes; 10^−3 M, control 60.8 ± 3.4",47.1 ± 3.0 %
same,"MA - fall of optical density of plasma, % to the standard","thrombocytes; 10^−4 M, control 60.0 ± 2.1",49.2 ± 2.1 %
same,"MA - fall of optical density of plasma, % to the standard","thrombocytes; 10^−5 M, control 52.5 ± 2.1",41.8 ± 2.4 %
same,"MA - drop of optical density, %","thrombocytes; 10^−6 M, control 52.8 ± 1.8",49.6 ± 1.7%
same,"MA - drop of optical density, %","thrombocytes; 10^−7 M, control 51.5 ± 2.1",49.7 ± 2.1%
"O=c1[nH][nH]c(=O)c2nccnc12.[Li] [Compound 25, lithium salt of pyrazine[2,3-d]-6H-pyridazine-5,8-dione]","MA - fall of optical density of plasma, % to the standard","thrombocytes; 10^−3 M, control 60.8 ± 3.4",48.2 ± 2.9 %
same,"MA - fall of optical density of plasma, % to the standard","thrombocytes; 10^−4 M, control 60.0 ± 2.1",48.6 ± 2.0 %
same,"MA - fall of optical density of plasma, % to the standard","thrombocytes; 10^−5 M, control 52.5 ± 2.1",43.4 ± 3.2 %
same,"MA - drop of optical density, %","thrombocytes; 10^−6 M, control 52.8 ± 1.8",50.3 ± 2.1%
same,"MA - drop of optical density, %","thrombocytes; 10^−7 M, control 51.5 ± 2.1",50.1 ± 3.0%
"Nc1ncc2c(=O)[nH][nH]c(=O)c2n1 [Compound 36, 2-amino-pyrimido[4,5-d]-6H-pyridazine-5,8-dione]","MA - fall of optical density of plasma, % to the standard","thrombocytes; 10^−3 M, control 60.8 ± 3.4",45.8 ± 2.3 %
same,"MA - fall of optical density of plasma, % to the standard","thrombocytes; 10^−4 M, control 60.0 ± 2.1",46.9 ± 2.4 %
same,"MA - fall of optical density of plasma, % to the standard","thrombocytes; 10^−5 M, control 52.5 ± 2.1",40.1 ± 2.0 %
same,"MA - drop of optical density, %","thrombocytes; 10^−6 M, control 52.8 ± 1.8",49.3 ± 2.6%
same,"MA - drop of optical density, %","thrombocytes; 10^−7 M, control 51.5 ± 2.1",49.7 ± 1.8%
